From patent publication US8030547B2, “Gene coding for acetolactate synthase” (priority 2002, dated 2011)

Experiments:
[1] = molecular target: T1, GST fusion P171H mutant ALS protein (Oryza sativa subsp. japonica, UniProt Q6K2E8, P171H); assay: Herbicide sensitivity of ALS protein expressed in E. coli (crude enzyme solution), P171H; assay type: biochemical, rice (Oryza sativa var. Kinmaze); conditions: for RS ratio: P171H mutant vs wild type
T1 construct: an expression vector having the full-length wild type ALS cDNA incorporated into the Eco RI site of pGEX-2T; made in house; host or cells: E. coli JM109, pGEX-2T(ALS P171H mutant); crude supernatant
Description: (§1) ALS activity resulting from the mutant ALS protein contained in the eluted fractions apportioned into each test tube for apportioning was measured as follows. A reaction solution to be used in a measurement reaction was prepared by mixing an eluted fraction to be measured with a solution comprising 20 mM sodium pyruvate, 0.5 mM TPP, 0.5 mM MgCl2, 10 μM FAD and 20 mM potassium phosphate buffer (pH 7.5). One ml of this reaction solution was used. After the eluted fraction to be measured was added, the measurement reaction was performed at 30° C. for 40 to 60 minutes. Then, the reaction was stopped by addition of 0.1 ml of 6N sulfuric acid (or 0.25 N sodium hydroxide).
(§2) After the reaction was stopped, the reaction solution was incubated at 60° C. for 10 minutes, thereby converting acetolactate contained in the reaction solution to acetoin.
(§3) Then, to quantify acetoin contained in the reaction solution, 1 ml of 0.5% (w/v) creatine and 1 ml of 5% (w/v) α-naphthol dissolved in 2.5 N sodium hydroxide was added to the reaction solution, followed by incubation at 37° C. for 10 minutes. Acetoin was then quantified by color comparison of the absorbance (at 525 nm) of the reaction solution, thereby evaluating ALS activity. In addition, since the reaction solution contained a small amount of sodium pyruvate, reaction time 0 was used as control.
(§4) E. coli transformed with pGEX-2T(ALS-wild) constructed in Example 3(5), E. coli transformed with pGEX-2T(ALS-W548L mutant) constructed in Example 5, E. coli transformed with pGEX-2T(ALS-S627I mutant) constructed in Example 5, E. coli transformed with pGEX-2T(ALS P171H mutant) constructed in Example 6, E. coli transformed with pGEX-2T(ALS R172S mutant) constructed in Example 6, E. coli transformed with pGEX-2T(ALS P171H, R172S mutant) constructed in Example 7, E. coli transformed with pGEX-2T(ALS-P171H, W548L mutant) constructed in Example 8, E. coli transformed with pGEX-2T(ALS-P171H, S627I mutant) constructed in Example 8, and E. coli transformed with pGEX-2T(ALS-P171H, W548L, S627I mutant) constructed in Example 9 were respectively shake-cultured (pre-culture) at 27° C. in 2 ml of LB liquid medium containing ampicillin. These types of E. coli were respectively cultured in 250 ml of LB liquid medium containing ampicillin using 1 ml of the pre-culture solution. After culturing overnight, 1 mM IPTG was added to the media, and then culturing was performed for a further 3 to 4 hours, so that the expression of GST fusion protein was induced. In addition, the cells were stored at −80° C. after washing.
(§5) Preparation and purification of ALS from E. coli were performed by the following method. First, the pellet of the transformant E. coli stored at −80° C. was suspended in ALS extraction buffer (potassium phosphate buffer (pH 7.5) containing 30% glycerol and 0.5 mM MgCl2). Specifically, 2.5 ml of the buffer was added to the pellet obtained from 50 ml of the culture solution. The suspension was subjected to ultrasonication (Heat Systems-Ultrasonics, Sonicator W-225R, micro chip, output control 8, interval of approximately 1 second, twice (40 seconds each)), and subjected to centrifugation at 15000×g, 4° C. for 20 minutes, thereby obtaining the supernatant as a crude enzyme solution.
(§6) Herbicide sensitivity of the wild type ALS protein and that of mutant ALS protein were examined using the 9 types of crude enzyme solutions obtained in Example 10. Herbicide sensitivity test was performed according to procedures almost the same as those in Example 2. However, in this example, reaction temperature was 37° C., reaction time was 30 minutes, and 10 mM valine was added to the reaction solution to inhibit ALS activity derived from E. coli. Further, three types of herbicides, bispyribac-sodium, pyrithiobac-sodium, and pyriminobac, were used as PC herbicides; chlorsulfuron was used as a sulfonylurea herbicide; and imazaquin was used as an imidazolinon herbicide. […]

[2] = molecular target: T2, GST fusion W548L mutant ALS protein (Oryza sativa subsp. japonica, UniProt Q6K2E8, W548L); assay: Herbicide sensitivity of ALS protein expressed in E. coli (crude enzyme solution), W548L; assay type: biochemical, rice (Oryza sativa var. Kinmaze); conditions: for RS ratio: W548L mutant vs wild type
T2 construct: an expression vector having the full-length wild type ALS cDNA incorporated into the Eco RI site of pGEX-2T; made in house; host or cells: E. coli JM109, pGEX 2T(ALS-W548L mutant); crude supernatant
Description: as §1, §2, §3, §4, §5, §6

T1 sequence (Q6K2E8 44-644 P171H): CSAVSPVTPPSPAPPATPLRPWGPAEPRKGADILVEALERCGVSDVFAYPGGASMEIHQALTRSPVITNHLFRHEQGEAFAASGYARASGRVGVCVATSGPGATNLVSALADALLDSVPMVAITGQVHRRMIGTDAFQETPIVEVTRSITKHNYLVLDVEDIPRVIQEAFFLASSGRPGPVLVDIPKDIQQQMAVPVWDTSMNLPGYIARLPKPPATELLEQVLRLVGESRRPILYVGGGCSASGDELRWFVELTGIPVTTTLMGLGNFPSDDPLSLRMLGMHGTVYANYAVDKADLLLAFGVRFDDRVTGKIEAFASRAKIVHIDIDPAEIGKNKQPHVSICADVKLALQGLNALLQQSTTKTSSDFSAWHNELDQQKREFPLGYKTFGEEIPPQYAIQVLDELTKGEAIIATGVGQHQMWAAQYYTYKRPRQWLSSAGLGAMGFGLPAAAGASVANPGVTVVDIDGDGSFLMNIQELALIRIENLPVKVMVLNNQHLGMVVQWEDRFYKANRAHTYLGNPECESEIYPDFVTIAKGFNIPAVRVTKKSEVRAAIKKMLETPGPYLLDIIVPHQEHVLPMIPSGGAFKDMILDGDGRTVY
T2 sequence (Q6K2E8 44-644 W548L): as the sequence (Q6K2E8 44-644 P171H) above, with H128P, W505L counted along it

SMILES | IC50 [1] [µM] | RS ratio [1] | IC50 [2] [µM] | RS ratio [2] | inhibition at 100 µM ([2]; read-out: inhibition % at the highest concentration among the concentrations tested, W548L mutant, in 100 μM) [%]
COc1cc(OC)nc(Oc2cccc(Oc3nc(OC)cc(OC)n3)c2C(=O)O)n1 [bispyribac-sodium] | 0.055 | 8.7 | 3.3 | 520 | 
COc1nc(C)nc(NC(=O)NS(=O)(=O)c2ccccc2Cl)n1 [chlorsulfuron] | 1.1 | 85 | 9.9 | 760 | 
CC(C)C1(C)N=C(c2nc3ccccc3cc2C(=O)O)NC1=O (stereo not drawn) [imazaquin] | 3.4 | 1.5 |  | >45 | 14
